Assay results as given in the NIST ThermoML archive (doi:10.1021/je050001c).
Numbers after ± are expanded uncertainties.

Details: 101.33 kPa, Liquid

CCOC(=O)C(C)CC (stereo not drawn) [ethyl 2-methylbutanoate]
Details | mass density [kg/m3]
293.15 K | 869.73 ± 7.4
298.15 K | 865 ± 7.4
303.15 K | 861.48 ± 7.5
308.15 K | 857.88 ± 7.5
313.15 K | 853.41 ± 7.5
318.15 K | 849.32 ± 7.5
323.15 K | 846.74 ± 7.5
328.15 K | 841.59 ± 7.5
333.15 K | 838.41 ± 7.5
338.15 K | 835.48 ± 7.6
343.15 K | 831.46 ± 7.6

Falling or rolling sphere viscometry
Details | viscosity [mPa·s]
293.15 K | 0.831 ± 0.011
298.15 K | 0.774 ± 0.01
303.15 K | 0.723 ± 0.01
308.15 K | 0.677 ± 0.01
313.15 K | 0.635 ± 0.01
318.15 K | 0.597 ± 0.01
323.15 K | 0.563 ± 0.009
328.15 K | 0.532 ± 0.009
333.15 K | 0.503 ± 0.009
338.15 K | 0.476 ± 0.009
343.15 K | 0.452 ± 0.009

CCOC(=O)CC(C)C [ethyl 3-methylbutanoate]
Details | mass density [kg/m3]
293.15 K | 866.23 ± 6.5
298.15 K | 864.01 ± 6.5
303.15 K | 860.12 ± 6.5
308.15 K | 855.98 ± 6.5
313.15 K | 851.79 ± 6.6
318.15 K | 847.39 ± 6.6
323.15 K | 846.24 ± 6.6
328.15 K | 842.35 ± 6.6
333.15 K | 840.07 ± 6.6
338.15 K | 836.31 ± 6.7
343.15 K | 833.62 ± 6.7

Falling or rolling sphere viscometry
Details | viscosity [mPa·s]
293.15 K | 0.805 ± 0.011
298.15 K | 0.752 ± 0.011
303.15 K | 0.703 ± 0.011
308.15 K | 0.659 ± 0.01
313.15 K | 0.62 ± 0.01
318.15 K | 0.581 ± 0.01
323.15 K | 0.544 ± 0.01
328.15 K | 0.516 ± 0.009
333.15 K | 0.485 ± 0.009
338.15 K | 0.457 ± 0.009
343.15 K | 0.431 ± 0.009

CCOC(C)=O [ethyl acetate]
Details | mass density [kg/m3]
293.15 K | 900.48 ± 2.9
298.15 K | 894.81 ± 3
303.15 K | 887.14 ± 3.1
308.15 K | 882.21 ± 3.2
313.15 K | 878.92 ± 3.3
318.15 K | 874.51 ± 3.4
323.15 K | 870.39 ± 3.4
328.15 K | 867.13 ± 3.5
333.15 K | 864.72 ± 3.5
338.15 K | 861.41 ± 3.6
343.15 K | 858.36 ± 3.6

Falling or rolling sphere viscometry
Details | viscosity [mPa·s]
293.15 K | 0.443 ± 0.009
298.15 K | 0.421 ± 0.009
303.15 K | 0.399 ± 0.009
308.15 K | 0.381 ± 0.009
313.15 K | 0.363 ± 0.009
318.15 K | 0.346 ± 0.008
323.15 K | 0.33 ± 0.008
328.15 K | 0.315 ± 0.008
333.15 K | 0.301 ± 0.008
338.15 K | 0.288 ± 0.008
343.15 K | 0.275 ± 0.008

CCCC(=O)OCC [ethyl butanoate]
Details | mass density [kg/m3]
293.15 K | 876.91 ± 6.4
298.15 K | 874.42 ± 6.5
303.15 K | 870.13 ± 6.5
308.15 K | 866.21 ± 6.5
313.15 K | 864.31 ± 6.5
318.15 K | 861.32 ± 6.5
323.15 K | 858.43 ± 6.5
328.15 K | 854.44 ± 6.5
333.15 K | 853.89 ± 6.5
338.15 K | 851.32 ± 6.6
343.15 K | 850.04 ± 6.6

Falling or rolling sphere viscometry
Details | viscosity [mPa·s]
293.15 K | 0.662 ± 0.01
298.15 K | 0.62 ± 0.009
303.15 K | 0.583 ± 0.009
308.15 K | 0.549 ± 0.009
313.15 K | 0.519 ± 0.009
318.15 K | 0.491 ± 0.009
323.15 K | 0.465 ± 0.009
328.15 K | 0.442 ± 0.009
333.15 K | 0.42 ± 0.009
338.15 K | 0.4 ± 0.009
343.15 K | 0.382 ± 0.009

CCCCCC(=O)OCC [ethyl hexanoate]
Details | mass density [kg/m3]
293.15 K | 879.01 ± 3.3
298.15 K | 872.53 ± 3.4
303.15 K | 869.31 ± 3.5
308.15 K | 866.74 ± 3.5
313.15 K | 863.28 ± 3.6
318.15 K | 860.19 ± 3.6
323.15 K | 856.42 ± 3.7
328.15 K | 851.93 ± 3.8
333.15 K | 847.88 ± 3.8
338.15 K | 845.32 ± 3.9
343.15 K | 841.46 ± 4

Falling or rolling sphere viscometry
Details | viscosity [mPa·s]
293.15 K | 0.816 ± 0.011
298.15 K | 0.757 ± 0.011
303.15 K | 0.704 ± 0.011
308.15 K | 0.656 ± 0.01
313.15 K | 0.614 ± 0.01
318.15 K | 0.576 ± 0.01
323.15 K | 0.541 ± 0.01
328.15 K | 0.509 ± 0.009
333.15 K | 0.482 ± 0.009
338.15 K | 0.456 ± 0.009
343.15 K | 0.429 ± 0.009

CCOC=O [ethyl methanoate]
Details | mass density [kg/m3]
293.15 K | 917.82 ± 2.8
298.15 K | 912.06 ± 2.9
303.15 K | 907.68 ± 2.9
308.15 K | 899.54 ± 3
313.15 K | 891.5 ± 3.2
318.15 K | 887.41 ± 3.2
323.15 K | 882.14 ± 3.3

Falling or rolling sphere viscometry
Details | viscosity [mPa·s]
293.15 K | 0.402 ± 0.009
298.15 K | 0.381 ± 0.009
303.15 K | 0.362 ± 0.009
308.15 K | 0.345 ± 0.009
313.15 K | 0.329 ± 0.009
318.15 K | 0.314 ± 0.009
323.15 K | 0.3 ± 0.009

CCOC(=O)CC [ethyl propanoate]
Details | mass density [kg/m3]
293.15 K | 891.62 ± 6.4
298.15 K | 884.1 ± 6.4
303.15 K | 879.31 ± 6.4
308.15 K | 874.12 ± 6.5
313.15 K | 870.61 ± 6.5
318.15 K | 867.34 ± 6.5
323.15 K | 864.33 ± 6.5
328.15 K | 860.89 ± 6.5
333.15 K | 858.14 ± 6.5
338.15 K | 856.81 ± 6.5
343.15 K | 853.48 ± 6.5

Falling or rolling sphere viscometry
Details | viscosity [mPa·s]
293.15 K | 0.523 ± 0.009
298.15 K | 0.492 ± 0.009
303.15 K | 0.464 ± 0.009
308.15 K | 0.441 ± 0.009
313.15 K | 0.418 ± 0.009
318.15 K | 0.398 ± 0.009
323.15 K | 0.378 ± 0.009
328.15 K | 0.36 ± 0.009
333.15 K | 0.344 ± 0.008
338.15 K | 0.329 ± 0.008
343.15 K | 0.315 ± 0.008

CCCCCCOC(=O)CCC [hexyl butanoate]
Details | mass density [kg/m3] | viscosity [mPa·s]
293.15 K | 860.73 ± 3.6 | 1.351 ± 0.044
298.15 K | 851 ± 3.8 | 1.234 ± 0.04
303.15 K | 846.52 ± 3.9 | 1.131 ± 0.037
308.15 K | 841.51 ± 4 | 1.014 ± 0.033
313.15 K | 837.46 ± 4 | 0.961 ± 0.031
318.15 K | 834.65 ± 4.1 | 0.889 ± 0.029
323.15 K | 830.78 ± 4.1 | 0.825 ± 0.027
328.15 K | 828.19 ± 4.2 | 0.768 ± 0.025
333.15 K | 826.77 ± 4.2 | 0.716 ± 0.023
338.15 K | 823.81 ± 4.2 | 0.669 ± 0.022
343.15 K | 820.76 ± 4.3 | 0.627 ± 0.02
